What was measured:
ICR mice [1] = assay: Forced swimming test of mice; conditions: once a day for 14 days, 1.5 h after last administration, last 4 min of 6 min, blank control 148.1 ± 18.9, **P < 0.01
ICR mice [2] = assay: Tail suspension test of mice; conditions: once a day for 14 days, 1.5 h after last administration, last 4 min of 6 min, blank control 151.1 ± 20.1, **P < 0.01
ICR mice [3] = assay: 5-HTP induced head twitching mouse model; conditions: once a day for 14 days, 150 mg/Kg 5-HTP i.p. 0.5 h after last administration, counted in 20 min, blank control 34.1 ± 18.1, **P < 0.01
ICR mice [4] = conditions: intragastric once a day for 14 days, nootkatone 1-2 mg/Kg, Prozac 20 mg/Kg
patients with depression = assay: Clinical efficacy observation by reduction rate of HAM-D; format: in vivo, human; conditions: 40 patients, oral 1.5 mg nootkatone monomer/Kg/time, twice a day, 6 weeks
Text: Forty patients were selected, wherein 20 were male and 20 were female, and their disease durations were from 1 month to 2 years. Diagnosis criteria of depression that conformed to Chinese Classification and Diagnostic Criteria of Mental Disorders scored […] according to the first 17 items in the Hamilton Depression Rating Scale (HAM-D) shown in Table 4. First-onset patients, or patients that had not taken antidepressants and antipsychotics and had not been subjected to electric shock therapy over the past week, and patients with depressive episodes of unipolar affective disorder, aged 20-50 years. Patients having depressive disorder caused by bipolar affective disorder and other causes, severe suicidal tendency, and severe abnormalities in laboratory tests (pregnant or lactating women) were eliminated.
Comment: 0 to 4 in the items of Standard for Evaluation and Point referred to the scores, and the standard for evaluation is: the total score <7 means normality; the total score between 7 and 17 means possible depression; the total score between 17 and 24 means definite depression; and the total score >24 means severe depression.
Nootkatone preparation was used to treat the 40 patients, and the administration manner was: orally taking, 1.5 mg nootkatone monomer/Kg/time, twice a day, and 6 weeks were one course of treatment. […] After 1 course of treatment, reduction rate of HAM-D was used to measure the curative efficacy of the traditional Chinese medicine on patients, reduction rate of HAM-D=(total scores before the treatment−total scores after the treatment)/total scores before the treatment×100%.
The standard of curative efficacy evaluation is hereinafter:
cure: reduction rate of HAMD is >75%;
improved: reduction rate of HAMD is from 25% to […];
invalid: reduction rate of HAMD is <25%.

[5] = 1 mg/Kg (small dose) intragastric
[6] = 1.5 mg/Kg (medium dose) intragastric
[7] = 2 mg/Kg (large dose) intragastric

CNCCC(Oc1ccc(C(F)(F)F)cc1)c1ccccc1 (centres unmarked) [Prozac, fluoxetine, reference compound]
Immobility Time, forced swimming test (ICR mice [1]; 20 mg/Kg intragastric): 80.9 ± 20.4** s
Immobility Time, tail suspension test (ICR mice [2]; 20 mg/Kg intragastric): 87.9 ± 22.0** S
Head-Twitching Number (ICR mice [3]; 20 mg/Kg intragastric): 57.9 ± 10.4** Time
Weight of mice before administration, one week and 2 weeks after administration (ICR mice [4]): no significant difference

C=C(C)[C@@H]1CCC2=CC(=O)C[C@@H](C)[C@]2(C)C1 [Nootkatone, nootkatone]
Adverse reactions in patients (patients with depression): no case has adverse reactions
Curative effective rate (patients with depression): 95%
Share of patients invalid (reduction rate of HAMD <25%) (patients with depression; 2 cases): 5%
Share of patients improved (reduction rate of HAMD from 25% to 50%) (patients with depression; 10 cases): 25%
Share of patients cured (reduction rate of HAMD >75%) (patients with depression; 14 cases): 35%
Share of patients significantly improved (reduction rate of HAMD from 51% to 75%) (patients with depression; 14 cases): 35%
Immobility Time, forced swimming test (ICR mice [1]; [5]): 74.0 ± 26.9** s
Immobility Time, forced swimming test (ICR mice [1]; [6]): 70.2 ± 22.3** s
Immobility Time, forced swimming test (ICR mice [1]; [7]): 66.1 ± 21.6** s
Immobility Time, tail suspension test (ICR mice [2]; [5]): 84.0 ± 17.6** S
Immobility Time, tail suspension test (ICR mice [2]; [6]): 80.2 ± 21.6** S
Immobility Time, tail suspension test (ICR mice [2]; [7]): 75.1 ± 19.6** S
Head-Twitching Number (ICR mice [3]; [5]): 58.0 ± 26.2** Time
Head-Twitching Number (ICR mice [3]; [6]): 60.2 ± 25.1** Time
Head-Twitching Number (ICR mice [3]; [7]): 63.1 ± 22.5** Time
Toxicity judged from weight and fur appearance of mice (ICR mice [4]): neither nootkatone nor the positive drug Prozac has toxicity
